ChEMBL document CHEMBL6103565, “Current strategies in design and synthesis of antifungals hybrid and chimeric diazine derivatives” (Bioorg Med Chem, 2025)
Converted amounts (≈) assume the structure as drawn.

Experiments:
Cryptococcus neoformans = test: Antifungal activity against Cryptococcus neoformans assessed as reduction in fungal growth incubated for 24 hrs by broth microdilution method; format: functional
Aspergillus niger [1] = test: Antifungal activity against Aspergillus niger MTCC 282 by disc diffusion method; format: functional, organism-based
Candida albicans [2] = test: Antifungal activity against Candida albicans MTCC 227 by disc diffusion method; format: functional, organism-based
Aspergillus flavus = test: Antimicrobial activity against Aspergillus flavus assessed as zone of inhibition; format: functional
Candida albicans [3] = test: Antimicrobial activity against Candida albicans ATCC 64124 assessed as reduction in microbial growth by CLSI protocol based micro-broth dilution method; format: functional
Trichophyton rubrum = test: Antifungal activity against Trichophyton rubrum assessed as diameter of zone inhibition; format: functional
Candida tropicalis = test: Antifungal activity against Candida tropicalis assessed as zone of inhibition by disc diffusion method; format: functional
Aspergillus niger [4] = test: Antifungal activity against Aspergillus niger assessed as zone of inhibition by disc diffusion method; format: functional
Botrytis cinerea = test: Antifungal activity against Botrytis cinerea assessed as reduction in fungal growth at 50 ug/ml relative to control; format: functional
Candida albicans [5] = test: Antifungal activity against Candida albicans assessed as diameter of zone inhibition; format: functional
Aspergillus niger [6] = test: Antifungal activity against Aspergillus niger assessed as diameter of zone inhibition; format: functional
Candida albicans [7] = test: Antifungal activity against Candida albicans assessed as reduction in fungal growth incubated for 48 hrs by broth micro-dilution method; format: functional
Botryosphaeria dothidea = test: Antifungal activity against Botryosphaeria dothidea assessed as reduction in fungal growth at 50 ug/ml relative to control; format: functional
[8] = test system: Syncephalastrum racemosum; test: Antifungal activity against Syncephalastrum racemosum assessed as zone of inhibition; format: functional
Candida albicans [9] = test: Antifungal activity against Candida albicans NRRL-Y477 assessed as zone of inhibition by disc diffusion method; format: functional
Pichia kudriavzevii = test: Antifungal activity against Pichia kudriavzevii MTCC 3020 assessed as inhibition of fungal growth incubated for 24 hrs; format: functional
Candida albicans [10] = test: Antifungal activity against Candida albicans MTCC 7315 assessed as inhibition of fungal growth incubated for 24 hrs; format: functional
Candida parapsilosis = test: Antifungal activity against Candida parapsilosis MTCC 1744 assessed as inhibition of fungal growth incubated for 24 hrs; format: functional; details: Lodderomyces parapsilosis
Candida albicans [11] = test: Antifungal activity against Candida albicans MTCC 3017 assessed as inhibition of fungal growth incubated for 24 hrs; format: functional
Candida albicans [12] = test: Antifungal activity against Candida albicans MTCC 227 assessed as inhibition of fungal growth incubated for 24 hrs; format: functional
Candida albicans [13] = test: Antifungal activity against Candida albicans MTCC 1637 assessed as inhibition of fungal growth incubated for 24 hrs; format: functional
Nakaseomyces glabratus = test: Antifungal activity against Candida glabrata MTCC 3019 assessed as inhibition of fungal growth incubated for 24 hrs; format: functional
Candida albicans [14] = test: Antifungal activity against Candida albicans MTCC 4748 assessed as inhibition of fungal growth incubated for 24 hrs; format: functional
Candida albicans [15] = test: Antifungal activity against Candida albicans MTCC 3018 assessed as inhibition of fungal growth incubated for 24 hrs; format: functional
Aspergillus fumigatus = test: Antifungal activity against Aspergillus fumigatus assessed as zone of inhibition; format: functional
Candida albicans [16] = test: Antifungal activity against Candida albicans ATCC 10231 assessed as zone of inhibition incubated for 24 hrs by disc diffusion method; format: functional
Candida albicans [17] = test: Antifungal activity against azole-resistant Candida albicans ATCC 18804 assessed as fungal growth inhibition incubated for 24 hrs by CLSI protocol based broth microdilution method; format: functional

Compound: Cc1nc(NC(=O)c2cc(C(F)(F)F)cc(C(F)(F)F)c2)c2c(C(F)(F)F)cc(-c3ccccc3)nc2n1
- MIC (Cryptococcus neoformans): 12.5 µg/mL (≈ 23 µM)

Compound: CC(=O)N1N=C(C2=C(C)NC(=O)NC2c2ccc(F)cc2)OC1c1ccccc1 (centres undefined)
- EC50 (Aspergillus niger [1]): 0.15 µg/mL (≈ 0.38 µM)
- EC50 (Candida albicans [2]): 0.15 µg/mL (≈ 0.38 µM)

Compound: O=C1CSC(c2ccccc2)N1c1nc(-c2ccccc2)cc(-c2ccccn2)n1 (centres undefined)
- inhibition zone (IZ) (Aspergillus flavus): 10 mm

Compound: Cc1nc(-c2ccc(C(C)(C)C)cc2)sc1-c1ccnc(N[C@H]2CCCCC2CN)n1 (some centres undefined)
- MIC (Candida albicans [3]): 4 µg/mL

Compound: Cc1c(-c2ccc(Br)cc2)nnc(O)c1Br
- inhibition zone (IZ) (Trichophyton rubrum): 14 mm

Compound: COc1ccc(C2C3C(C)=NN(c4ccccc4)C3N=C3SCCN32)cc1 (centres undefined)
- inhibition zone (IZ) (Candida tropicalis): 26 mm
- inhibition zone (IZ) (Aspergillus niger [4]): 24 mm

Compound: O=C(Nc1ccc(F)c(Cl)c1)c1ccc(Oc2cc(C(F)(F)F)ncn2)cc1
- inhibition at 50 µg/mL (Botrytis cinerea): 91.7%

Compound: Cc1cccc(-c2nc3ccccc3nc2N2CCN(C)CC2)c1
- inhibition zone (IZ) (Candida albicans [5]): 14 mm
- inhibition zone (IZ) (Aspergillus niger [6]): 16 mm

Compound: O=C1CNC(c2ccc(Cl)cc2)N1c1nc(-c2ccc(Cl)cc2)cc(-c2ccccn2)n1 (centres undefined)
- inhibition zone (IZ) (Aspergillus flavus): 10 mm

Compound: Oc1nnc(-c2ccccc2Cl)cc1Br
- inhibition zone (IZ) (Trichophyton rubrum): 14 mm

Compound: Cc1ccc(S(=O)(=O)Nc2nc(/N=N/c3c(N)nn4c(C)cc(=O)[nH]c34)cs2)cc1
- MIC (Candida albicans [7]): 3.12 µg/mL (≈ 7.02 µM)

Compound: NC(=S)NNC(=O)c1c[nH]c2ncnn2c1=O
- MIC (Cryptococcus neoformans): 25 µg/mL (≈ 98.7 µM)

Compound: Cc1nc(Oc2ccc(C(=O)Nc3ccc(F)cc3)cc2)cc(C(F)(F)F)n1
- inhibition at 50 µg/mL (Botryosphaeria dothidea): 85.9%

Compound: CCc1nnc2c(Nc3ccc(Br)cc3)nc3ccccc3n12
- inhibition zone (IZ) [8]: 20 mm

Compound: CCOC(=O)c1c(C)nc2sc3c(SCC(=O)Nc4ccc(C)cc4)ncnc3c2c1-c1cccs1
- inhibition zone (IZ) (Candida albicans [9]): 25 mm
- inhibition zone (IZ) (Aspergillus niger [4]): 24 mm

Compound: O=[N+]([O-])c1ccc(-c2nnc3c4ccc(C(F)(F)F)nc4nc(-c4ccco4)n23)cc1
- MIC (Pichia kudriavzevii): 3.9 µg/mL (≈ 9.15 µM)
- MIC (Candida albicans [10]): 3.9 µg/mL (≈ 9.15 µM)
- MIC (Candida parapsilosis): 3.9 µg/mL (≈ 9.15 µM)
- MIC (Candida albicans [11]): 3.9 µg/mL (≈ 9.15 µM)
- MIC (Candida albicans [12]): 3.9 µg/mL (≈ 9.15 µM)
- MIC (Candida albicans [13]): 3.9 µg/mL (≈ 9.15 µM)
- MIC (Nakaseomyces glabratus): 3.9 µg/mL (≈ 9.15 µM)
- MIC (Candida albicans [14]): 3.9 µg/mL (≈ 9.15 µM)
- MIC (Candida albicans [15]): 3.9 µg/mL (≈ 9.15 µM)

Compound: O=C(Nc1ccc(F)cc1)c1ccc(Oc2cc(C(F)(F)F)ncn2)cc1
- inhibition at 50 µg/mL (Botryosphaeria dothidea): 89.8%
- inhibition at 50 µg/mL (Botrytis cinerea): 90.3%

Compound: Nc1nc(=S)[nH]c(N)c1C1=NC2=Nc3ccccc3C2=N1
- inhibition zone (IZ) (Aspergillus flavus): 14 mm

Compound: Oc1nnc(-c2ccc(Cl)cc2)cc1Br
- inhibition zone (IZ) (Trichophyton rubrum): 14 mm

Compound: CCc1nnc2c(Nc3ccc(C4=NN(C(N)=O)C(c5ccc(Cl)cc5)C4)cc3)nc3ccccc3n12 (centres undefined)
- inhibition zone (IZ) (Aspergillus fumigatus): 22 mm
- inhibition zone (IZ) [8]: 21 mm

Compound: CCc1ccccc1/N=N/c1c(N)nc2c(/N=N/c3ccccc3CC)cnn2c1N
- inhibition zone (IZ) (Candida albicans [16]): 21 mm

Compound: C=CCNN1CCN(c2nc3ccccc3nc2-c2cccc(C)c2)CC1
- inhibition zone (IZ) (Candida albicans [5]): 13 mm
- inhibition zone (IZ) (Aspergillus niger [6]): 14 mm

Compound: C/C=C/N1CCN(c2nc3ccccc3nc2-c2cccc(C)c2)CC1
- inhibition zone (IZ) (Candida albicans [5]): 14 mm
- inhibition zone (IZ) (Aspergillus niger [6]): 15 mm

Compound: CCc1nnc2c(Nc3ccc(C4=NN(C(N)=S)C(c5ccccc5)C4)cc3)nc3ccccc3n12 (centres undefined)
- inhibition zone (IZ) [8]: 20 mm

Compound: O=c1ccc(=O)n(-c2nc(-c3cc4c(ccc5ccccc54)oc3=O)cs2)[nH]1
- MIC (Candida albicans [17]): 0.9 µg/mL (≈ 2.31 µM)

Compound: CC(=O)N1N=C(C2=C(C)NC(=O)NC2c2ccc(F)cc2)OC1c1ccc(Cl)cc1 (centres undefined)
- EC50 (Aspergillus niger [1]): 0.2 µg/mL (≈ 0.466 µM)
- EC50 (Candida albicans [2]): 0.2 µg/mL (≈ 0.466 µM)

Compound: Cc1nc(Oc2ccc(C(=O)Nc3ccc(Br)c(Cl)c3)cc2)cc(C(F)(F)F)n1
- inhibition at 50 µg/mL (Botrytis cinerea): 83.8%
